How the values were obtained:
Settings in all cases: treatment: drug + dasatinib (fixed dose, not stated); 5 days
[1] = system: 769-P; experiment: GI50 of drug in presence of dasatinib; higher = less potent
Description: (§1)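 Primary HTS combination arm: 8 RCC cell lines treated with 8 doses (up to 10 uM) of each library drug plus a fixed dose of dasatinib (dose not stated) for 5 days; viability read by CellTiter-Glo and normalised to DMSO. GI50 was fitted with XLfit, AUC is the area under the dose-response curve, and minimum viability is the lowest fraction of DMSO viability across doses.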

[2] = system: UO-31; experiment: as above
Description: as §1

[3] = system: ACHN; experiment: as above
Description: as §1

[4] = system: A498; experiment: as above
Description: as §1

[5] = system: 786-O; experiment: as above
Description: as §1

[6] = system: SN12C; experiment: as above
Description: as §1

[7] = system: TK-10; experiment: as above
Description: as §1

[8] = system: CAKI-1; experiment: as above
Description: as §1

[9] = system: 769-P; experiment: AUC of dose-response viability curve, drug + dasatinib, normalised to DMSO (arbitrary (AUC of normalised viability)); higher = less growth inhibition
Description: as §1

[10] = system: UO-31; experiment: as above
Description: as §1

[11] = system: ACHN; experiment: as above
Description: as §1

[12] = system: A498; experiment: as above
Description: as §1

[13] = system: 786-O; experiment: as above
Description: as §1

[14] = system: SN12C; experiment: as above
Description: as §1

[15] = system: TK-10; experiment: as above
Description: as §1

[16] = system: CAKI-1; experiment: as above
Description: as §1

[17] = system: 769-P; experiment: minimum viability across doses, drug + dasatinib, relative to DMSO (fraction); higher = less growth inhibition
Description: as §1

[18] = system: UO-31; experiment: as above
Description: as §1

[19] = system: ACHN; experiment: as above
Description: as §1

[20] = system: A498; experiment: as above
Description: as §1

[21] = system: 786-O; experiment: as above
Description: as §1

[22] = system: SN12C; experiment: as above
Description: as §1

[23] = system: TK-10; experiment: as above
Description: as §1

[24] = system: CAKI-1; experiment: as above
Description: as §1

Structure (SMILES) | GI50 of drug [3] [nM] | GI50 of drug [5] [nM] | GI50 of drug [1] [nM] | GI50 of drug [2] [nM] | GI50 of drug [4] [nM] | GI50 of drug [6] [nM] | GI50 of drug [7] [nM] | GI50 of drug [8] [nM] | AUC of dose-response viability curve [9] | AUC of dose-response viability curve [10] | AUC of dose-response viability curve [11] | AUC of dose-response viability curve [12] | AUC of dose-response viability curve [13] | AUC of dose-response viability curve [14] | AUC of dose-response viability curve [15] | AUC of dose-response viability curve [16] | minimum viability across doses [17] | minimum viability across doses [18] | minimum viability across doses [19] | minimum viability across doses [20] | minimum viability across doses [21] | minimum viability across doses [22] | minimum viability across doses [23] | minimum viability across doses [24]
COc1cc(Nc2ncc(F)c(Nc3ccc4c(n3)N(COP(=O)([O-])[O-])C(=O)C(C)(C)O4)n2)cc(OC)c1OC.[Na+].[Na+] + Cc1nc(Nc2ncc(C(=O)Nc3c(C)cccc3Cl)s2)cc(N2CCN(CCO)CC2)n1 [dasatinib] | 68.7 | 419 | 1630 | 1580 | > 10000 | 793 | 2070 | 161 | 2.15 | 2.8 | 1.48 | 3.45 | 1.78 | 2.03 | 2.17 | 1.52 | 0.0654 | 0.0117 | 0.0433 | 0.671 | 0.245 | 0.202 | 0.304 | 0.00358
CNC(=O)c1ccc(C)c(-n2c(C)cc(OCc3ccc(F)cc3F)c(Br)c2=O)c1 + Cc1nc(Nc2ncc(C(=O)Nc3c(C)cccc3Cl)s2)cc(N2CCN(CCO)CC2)n1 [dasatinib] | 90.6 | < 3 | > 10000 | > 10000 | > 10000 | > 10000 | > 10000 | > 10000 | 2.22 | 4.38 | 1.68 | 3.58 | 1.89 | 2.42 | 2.23 | 2.3 | 0.558 | 1.15 | 0.346 | 0.937 | 0.457 | 0.64 | 0.541 | 0.561
CCc1cccc(CC)c1NC(=O)N1Cc2[nH]nc(NC(=O)c3ccc(N4CCN(C)CC4)cc3)c2C1 + Cc1nc(Nc2ncc(C(=O)Nc3c(C)cccc3Cl)s2)cc(N2CCN(CCO)CC2)n1 [dasatinib] | 566 | 469 | > 10000 | 7530 | 2720 | 641 | 4610 | 818 | 2.4 | 3.44 | 1.88 | 2.74 | 1.79 | 1.9 | 2.43 | 1.89 | 0.565 | 0.31 | 0.129 | 0.406 | 0.0687 | 0.117 | 0.319 | 0.0817
CN(c1ncccc1CNc1nc(Nc2ccc3c(c2)CC(=O)N3)ncc1C(F)(F)F)S(C)(=O)=O.O=S(=O)(O)c1ccccc1 + Cc1nc(Nc2ncc(C(=O)Nc3c(C)cccc3Cl)s2)cc(N2CCN(CCO)CC2)n1 [dasatinib] | 96.6 | 222 | 1560 | 3010 | 3510 | 4150 | 3290 | 966 | 1.93 | 3.91 | 1.66 | 3.75 | 1.6 | 2.16 | 2.28 | 1.98 | 0.0401 | 0.0198 | 0.0114 | 0.015 | 0.00638 | 0.012 | 0.15 | 0.039
CC(=O)NCC(=O)N1[C@H]2CC[C@H]1c1cc(Nc3ncc(C(F)(F)F)c(NC4CCC4)n3)ccc12 + Cc1nc(Nc2ncc(C(=O)Nc3c(C)cccc3Cl)s2)cc(N2CCN(CCO)CC2)n1 [dasatinib] | 24.1 | 18.1 | 118 | 711 | 625 | 128 | 429 | 30.6 | 1.61 | 2.3 | 1.17 | 2.34 | 0.86 | 1.47 | 1.83 | 1.11 | 0.028 | 0.0156 | 0.0109 | 0.0199 | 0.0101 | 0.0154 | 0.116 | 0.0773
CNC(=O)c1nn(C)c2c1C(C)(C)Cc1cnc(Nc3ccc(N4CCN(C)CC4)cc3)nc1-2 + Cc1nc(Nc2ncc(C(=O)Nc3c(C)cccc3Cl)s2)cc(N2CCN(CCO)CC2)n1 [dasatinib] | 22 | 35.5 | 245 | 279 | 3470 | 261 | 137 | 38.8 | 1.77 | 2.02 | 1.03 | 3.23 | 1.35 | 1.71 | 1.63 | 1.11 | 0.0274 | 0.0113 | 0.0123 | 0.0243 | 0.00492 | 0.0108 | 0.189 | 0.0344

Further lines, with some results ahead:

GI50 of drug [3] [nM] | GI50 of drug [5] [nM] | Structure (SMILES) | GI50 of drug [1] [nM] | GI50 of drug [2] [nM] | GI50 of drug [4] [nM] | GI50 of drug [6] [nM] | GI50 of drug [7] [nM] | GI50 of drug [8] [nM] | AUC of dose-response viability curve [9] | AUC of dose-response viability curve [10] | AUC of dose-response viability curve [11] | AUC of dose-response viability curve [12] | AUC of dose-response viability curve [13] | AUC of dose-response viability curve [14] | AUC of dose-response viability curve [15] | AUC of dose-response viability curve [16] | minimum viability across doses [17] | minimum viability across doses [18] | minimum viability across doses [19] | minimum viability across doses [20] | minimum viability across doses [21] | minimum viability across doses [22] | minimum viability across doses [23] | minimum viability across doses [24]
449 | > 10000 | Oc1ccc(-c2nc(-c3ccc(F)cc3)c(-c3ccncc3)[nH]2)cc1 + Cc1nc(Nc2ncc(C(=O)Nc3c(C)cccc3Cl)s2)cc(N2CCN(CCO)CC2)n1 [dasatinib] | > 10000 | > 10000 | > 10000 | > 10000 | > 10000 | > 10000 | 2.27 | 3.66 | 1.74 | 3.53 | 2.57 | 2.45 | 2.53 | 2.52 | 0.56 | 0.768 | 0.279 | 0.909 | 0.609 | 0.652 | 0.634 | 0.555
578 | 196 | O=C1NCCc2[nH]c(-c3ccncc3)cc21 + Cc1nc(Nc2ncc(C(=O)Nc3c(C)cccc3Cl)s2)cc(N2CCN(CCO)CC2)n1 [dasatinib] | 8350 | 2310 | 3110 | 4170 | 2040 | 718 | 2.35 | 3.26 | 1.72 | 3.35 | 1.73 | 2.23 | 2.27 | 1.98 | 0.463 | 0.0107 | 0.0122 | 0.0141 | 0.00389 | 0.0225 | 0.185 | 0.0883
1060 | 3300 | Cc1[nH]c(/C=C2\C(=O)Nc3ccc(S(=O)(=O)Cc4c(Cl)cccc4Cl)cc32)c(C)c1C(=O)N1CCC[C@@H]1CN1CCCC1 + Cc1nc(Nc2ncc(C(=O)Nc3c(C)cccc3Cl)s2)cc(N2CCN(CCO)CC2)n1 [dasatinib] | 2300 | 3100 | 2100 | 4240 | 4110 | 2160 | 2.14 | 2.84 | 1.93 | 2.71 | 2.38 | 2.19 | 2.73 | 2.04 | 0.00439 | 0.0078 | 0.00119 | 0.0111 | 0.0107 | 0.00449 | 0.00273 | 0.00431
> 10000 | > 10000 | N#CC[C@H](C1CCCC1)n1cc(-c2ncnc3[nH]ccc23)cn1 + Cc1nc(Nc2ncc(C(=O)Nc3c(C)cccc3Cl)s2)cc(N2CCN(CCO)CC2)n1 [dasatinib] | > 10000 | > 10000 | > 10000 | > 10000 | > 10000 | 4270 | 2.39 | 3.91 | 1.97 | 3.44 | 2.44 | 2.5 | 2.61 | 2.21 | 0.557 | 0.486 | 0.504 | 0.911 | 0.536 | 0.689 | 0.686 | 0.331
165 | 49.8 | CN(C)C1CCN(C(=O)c2ccc(NC(=O)Nc3ccc(-c4nc(N5CCOCC5)nc(N5CCOCC5)n4)cc3)cc2)CC1 + Cc1nc(Nc2ncc(C(=O)Nc3c(C)cccc3Cl)s2)cc(N2CCN(CCO)CC2)n1 [dasatinib] | 2870 | 1680 | 56.3 | 19.2 | 306 | 302 | 2.27 | 3.11 | 1.62 | 1.37 | 1.23 | 1.04 | 1.91 | 1.74 | 0.147 | 0.117 | 0.125 | 0.0743 | 0.00554 | 0.107 | 0.112 | 0.0335
15.4 | 40.2 | COc1ccc(-c2cc3c(C)nc(N)nc3n([C@H]3CC[C@H](OCCO)CC3)c2=O)cn1 + Cc1nc(Nc2ncc(C(=O)Nc3c(C)cccc3Cl)s2)cc(N2CCN(CCO)CC2)n1 [dasatinib] | 94.6 | 129 | 491 | 79.4 | 62.1 | 41.7 | 1.37 | 1.67 | 1 | 2.3 | 1.15 | 1.37 | 1.35 | 1.12 | 0.0148 | 0.00781 | 0.0415 | 0.161 | 0.0021 | 0.0663 | 0.0233 | 0.00992
18.9 | 85.8 | CC(C)CC(=O)Nc1n[nH]c2c1CN(C(=O)C1CCN(C)CC1)C2(C)C + Cc1nc(Nc2ncc(C(=O)Nc3c(C)cccc3Cl)s2)cc(N2CCN(CCO)CC2)n1 [dasatinib] | 3220 | 1960 | 1290 | 248 | 2840 | 842 | 2.32 | 3.13 | 1.11 | 2.59 | 1.21 | 1.7 | 2.43 | 1.99 | 0.288 | 0.0113 | 0.0258 | 0.00865 | 0.0032 | 0.00656 | 0.184 | 0.0614
69.6 | 18 | OCc1ccc(-c2ccc(-c3ccc(CO)s3)o2)s1 + Cc1nc(Nc2ncc(C(=O)Nc3c(C)cccc3Cl)s2)cc(N2CCN(CCO)CC2)n1 [dasatinib] | 9.16 | 917 | 1700 | 219 | 15 | 4.49 | 0.925 | 3.23 | 1.2 | 2.69 | 1.04 | 1.8 | 0.849 | 0.396 | 0.0624 | 0.0841 | 0.0471 | 0.292 | 0.0022 | 0.0563 | 0.0365 | 0.00172
